Values joined by “and” are separate entries in the source; they are usually repeats but may differ in a detail not shown here. Identical values can stand only once. Like-named read-outs stand apart in the source and are kept apart here.
Tests used:
microorganisms = conditions: gaseous state; cited from earlier work
[1] = tested on: C. glutamicum M2014 (parent); experiment: Test tube growth in methionine-free medium, DMDS added directly; conditions: M2014; MF + Met 40 mg/l; 36 hours at 30° C.
Source text: (§1) M2014 was transformed with plasmid pOM86 (FIG. 9) (SEQ ID NO:8) to yield a “Campbell in” strain. The “Campbell in” strain was then “Cambelled out” to yield a “Campbell out” strain named OM63.

[2] = tested on: C. glutamicum OM63 (ΔmetF); assay type: cell-based; conditions: MF + Met 40 mg/l, 36 hours at 30° C.
Source text: as §1

C. glutamicum M2014 [3] = experiment: Test tube growth in methionine-free medium with Amberlite XAD4 as DMDS delivery system; conditions: M2014, XAD4
Protocol: (§2) To this end, test tube experiments using 5 ml of medium were performed on OM63 and M2014.
(§3) To each test tube 100 μl of a sterile suspension of XAD4 in water (50% v/v) was added.

[4] = tested on: C. glutamicum OM63 (ΔmetF)
Protocol: as §2, §3

[5] = tested on: C. glutamicum OM101C (ΔmetF, ΔmetB); assay type: cell-based; conditions: met 100 mg/l, XAD4, 24 hours at 30° C.
Protocol: as §3

[6] = tested on: C. glutamicum OM246C (ΔmetE, ΔmetH); assay type: cell-based; conditions: met 100 mg/l, XAD4, 24 hours at 30° C.
Protocol: as §3

C. glutamicum M2014 [7] = experiment: Test tube growth in methionine-free medium with mineral oil as DMDS delivery system; conditions: MF + Met 100 mg/l, no oil, 24 hours at 30° C.
Source text: (§4) Other possible delivery systems include synthetic oils, organic solvents, chloro-carbons, fluoro-carbons, or chloro-fluoro-carbons.

[8] = tested on: C. glutamicum OM246C (ΔmetH, ΔmetE); conditions: OM246C, 24 hours at 30° C.
Source text: as §4

C. glutamicum M2014 [9] = experiment: Test tube growth in methionine-free medium with canola oil as DMDS delivery system; assay type: cell-based; conditions: 24 hours at 30° C.
Source text: as §4

[10] = tested on: C. glutamicum OM246C (ΔmetH, ΔmetE); assay type: cell-based; conditions: 24 hours at 30° C.
Source text: as §4

[11] = tested on: C. glutamicum OM158 (ΔmetF, ΔmetY); conditions: Met 100 mg/ml, XAD4, 60 hours at 30° C.
Protocol: (§5) A test tube experiment was performed with M2014 derivatives that contain different combinations of deletions of metY, metB, and metF. […] The inoculum was approximately 5×10^3 cells per tube. Cells were grown at 30° C. in a platform shaker for 60 hours, and cell densities were measured at OD600.

[12] = tested on: C. glutamicum OM101 (ΔmetF, ΔmetB); conditions: Met 100 mg/ml, XAD4, 60 hours at 30° C.
Protocol: as §5

[13] = tested on: C. glutamicum OM174 (ΔmetF, ΔmetB, ΔmetY); conditions: Met 100 mg/ml, XAD4, 60 hours at 30° C.
Protocol: as §5

Structure (SMILES): C[Se][Se]C [DMDSe, dimethyldiselenide]
- toxicity to microorganisms (microorganisms): toxic to microorganisms in a gaseous state

Structure (SMILES): CSCC[C@H](N)C(=O)O [Met, methionine, reference compound]
- Optical densities at 600 nm [1]: 5.8
- Optical densities at 600 nm [2]: 5.2
- Optical densities at 600 nm (C. glutamicum M2014 [3]; Met 40 mg/l, 42 hours at 30° C.): 7.1
- OD600 (C. glutamicum M2014 [3]; Met 100 mg/ml, 60 hours at 30° C.): 2.2 and 2.3
- Optical densities at 600 nm (C. glutamicum M2014 [3]; met 100 mg/l, 24 hours at 30° C.): 4.4 and 4.7
- Optical densities at 600 nm ([4]; Met 40 mg/l, XAD4, 42 hours at 30° C.): 4.4
- OD600 ([4]; Met 100 mg/ml, XAD4, 60 hours at 30° C.): 1.6 and 1.9
- Optical densities at 600 nm ([4]; met 100 mg/l, XAD4, 24 hours at 30° C.): 2.4 and 3.0
- Optical densities at 600 nm [5]: 1.9 and 2.1
- Optical densities at 600 nm [6]: 3.9 and 4.3
- Optical densities at 600 nm (C. glutamicum M2014 [7]): 4.6 and 4.8
- Optical densities at 600 nm ([8]; MF + Met 100 mg/l, no oil): 4.9 and 4.7
- Optical densities at 600 nm ([8]; MF + Met + Mineral Oil): 1.5 and 1.8
- Optical densities at 600 nm (C. glutamicum M2014 [9]; MF + Met 100 mg/l, no oil): 4.6 and 4.8
- Optical densities at 600 nm (C. glutamicum M2014 [9]; MF + Met + Canola Oil): 3.8 and 3.5
- Optical densities at 600 nm ([10]; MF + Met 100 mg/l, no oil): 4.9 and 4.7
- Optical densities at 600 nm ([10]; MF + Met + Canola Oil): 3.7 and 3.0
- OD600 [11]: 3.2 and 2.7
- OD600 [12]: 1.8
- OD600 [13]: 1.5 and 1.2

Source: patent US8399214B2 (Evonik Degussa GmbH, priority 2005, dated 2013)
